From ChEMBL document CHEMBL2440076, “New triarylpyrazoles as broad-spectrum anticancer agents: design, synthesis, and biological evaluation” (Eur J Med Chem, 2013)

Legend:
Assay type in all cases: functional
Malme-3M = experiment: Growth inhibition of human MALME-3M cells assessed as cell growth at 10 uM after 48 hrs by sulforhodamine B assay; conditions: read-out: Activity
MDA-MB-435 = experiment: Growth inhibition of human MDA-MB-435 cells assessed as cell growth at 10 uM after 48 hrs by sulforhodamine B assay; conditions: MDA-MB-435, 48 h, read-out: Activity
LOX IMVI = experiment: Growth inhibition of human LOXIMVI cells assessed as cell growth at 10 uM after 48 hrs by sulforhodamine B assay; conditions: read-out: Activity
IGROV-1 = experiment: Growth inhibition of human IGROV1 cells assessed as cell growth at 10 uM after 48 hrs by sulforhodamine B assay; conditions: IGROV-1, 48 h, read-out: Activity
[1] = Growth inhibition of human NCI-ADR-RES cells assessed as cell growth at 10 uM after 48 hrs by sulforhodamine B assay; conditions: read-out: Activity
CCRF-CEM = experiment: Growth inhibition of human CCRF-CEM cells assessed as cell growth at 10 uM after 48 hrs by sulforhodamine B assay; conditions: read-out: Activity
MCF7 = experiment: Growth inhibition of human MCF7 cells assessed as cell growth at 10 uM after 48 hrs by sulforhodamine B assay; conditions: MCF7, 48 h, read-out: Activity
MOLT-4 = experiment: Growth inhibition of human MOLT4 cells assessed as cell growth at 10 uM after 48 hrs by sulforhodamine B assay; conditions: MOLT-4, 48 h, read-out: Activity
NCI-H226 = experiment: Growth inhibition of human NCI-H226 cells assessed as cell growth at 10 uM after 48 hrs by sulforhodamine B assay; conditions: NCI-H226, 48 h, read-out: Activity
OVCAR-4 = experiment: Growth inhibition of human OVCAR4 cells assessed as cell growth at 10 uM after 48 hrs by sulforhodamine B assay; conditions: OVCAR-4, 48 h, read-out: Activity
HCT-15 = experiment: Growth inhibition of human HCT15 cells assessed as cell growth at 10 uM after 48 hrs by sulforhodamine B assay; conditions: HCT-15, 48 h, read-out: Activity
HT-29 = experiment: Growth inhibition of human HT-29 cells assessed as cell growth at 10 uM after 48 hrs by sulforhodamine B assay; conditions: HT-29, 48 h, read-out: Activity
SF-539 = experiment: Growth inhibition of human SF539 cells assessed as cell growth at 10 uM after 48 hrs by sulforhodamine B assay; conditions: SF-539, 48 h, read-out: Activity
A549 = experiment: Growth inhibition of human A549/ATCC cells assessed as cell growth at 10 uM after 48 hrs by sulforhodamine B assay; conditions: A549, 48 h, read-out: Activity
KM12 = experiment: Growth inhibition of human KM12 cells assessed as cell growth at 10 uM after 48 hrs by sulforhodamine B assay; conditions: KM12, 48 h, read-out: Activity
NCI-H322M = experiment: Growth inhibition of human NCI-H322M cells assessed as cell growth at 10 uM after 48 hrs by sulforhodamine B assay; conditions: read-out: Activity
HOP-92 = experiment: Growth inhibition of human HOP92 cells assessed as cell growth at 10 uM after 48 hrs by sulforhodamine B assay; conditions: HOP-92, 48 h, read-out: Activity

Compound	growth at 10 µM (Malme-3M) [%]	growth at 10 µM (MDA-MB-435) [%]	growth at 10 µM (LOX IMVI) [%]	growth at 10 µM (IGROV-1) [%]	growth at 10 µM [1] [%]	growth at 10 µM (CCRF-CEM) [%]	growth at 10 µM (MCF7) [%]	growth at 10 µM (MOLT-4) [%]	growth at 10 µM (NCI-H226) [%]	growth at 10 µM (OVCAR-4) [%]	growth at 10 µM (HCT-15) [%]	growth at 10 µM (HT-29) [%]	growth at 10 µM (SF-539) [%]	growth at 10 µM (A549) [%]	growth at 10 µM (KM12) [%]	growth at 10 µM (NCI-H322M) [%]	growth at 10 µM (HOP-92) [%]
O=C(Nc1cccc(-n2cc(-c3ccncc3)c(-c3ccc(Cl)c(O)c3)n2)c1)c1ccc(Cl)c(C(F)(F)F)c1	79.5	97.8	91.3	98.4	104	98.8	93.9	79.5	103	111	92.9	105	94.7	88.8	88.4	108	–
O=C(Nc1cccc(-n2cc(-c3ccncc3)c(-c3ccc(Cl)c(O)c3)n2)c1)c1ccccc1	53.1	56.1	68.5	88	62.7	67.5	62.6	69.5	89.6	40.7	58.2	53.5	74.7	52.6	70.1	89.2	3.59
COc1cc(-c2nn(-c3cccc(NC(=O)Nc4ccccc4)c3)cc2-c2ccncc2)ccc1Cl	57.7	22.6	85.4	86.5	72.8	83.3	88.8	57	92.3	90.5	84.5	84	90	79.3	73.7	95.5	–
